Data on three molecules can be found in patent US20040018528A1, “Novel biomarkers of tyrosine kinase inhibitor exposure and activity in mammals” (Sugen, Inc., priority 2002, published 2004).

Format in all cases: in vivo, human
The subject of assay [1] is PAI-1. Put plainly: PAI-1 plasma levels in Compound B trial patients. Conditions: after 56 days of treatment.
Another assay deals with PBMC and whole blood RNA. Briefly: SYBR Green quantitative RT-PCR of PBMC / whole blood RNA, Compound B Trials A and B. The note with it: end of one treatment cycle relative to baseline, two Phase III trials. How it is done:
Primers were designed with Primer Express 1.5 software (Applied Biosystems). In all cases, primers were designed to bind within the sequence that was used in Affymetrix probe set designs (target sequence information available on Affymterix NetAffx website). Total RNA samples (1 μg) were reverse transcribed to yield first-strand cDNA using the Applied Biosystems Reverse Transcription Reagents protocol (Applied Biosystems, Foster City, Calif.). The reverse transcription reactions were then diluted 1:5 in distilled H2O. […] For individual reactions, 10 μl of each sample were combined with 15 μl of SYBR Green PCR Master Mix (Applied Biosystems) containing the appropriate primer pair at 350 nM. Data was extracted and amplification plots generated with ABI SDS software. […]
The relative expression data for a select subset of potential biomarkers were tested for differences between the Compound B (treatment) and the standard of care (control) arms. […] Results from three different cross-validations were evaluated to select the best set of predictable biomarkers: (1) jackknife method (dropping one case at a time); (2) randomly splitting the pooled data into two halves, prediction (for building model) and validation (for testing model); and (3) using the first trial as prediction and the later trial as validation sets, respectively. […]

Another assay relates to PBMC. Briefly: Affymetrix microarray expression profiling of PBMC, Compound B Trial A. The note with it: PBMC day 56 vs day 1. As to the method: Patient samples were derived from 2 randomized, open-label, multicenter Phase III clinical trials comparing standard of care chemotherapy alone or combined with Compound B in patients with metastatic colorectal cancer. In both trials Compound B was delivered twice weekly at a dose of 145 mg/m^2 via I.V. infusion. In the first trial (designated Trial A), the standard of care chemotherapy consisted of weekly administration of 5-FU and leucovorin (Rosewell Park regimen); in the second trial (designated Trial B), the standard of care chemotherapy consisted of weekly or bi-weekly administration of 5-FU, leucovorin and Irinotecan (CPT-11). A total of 23 patient sample pairs were included in Affymetrix microarray expression profiling analysis, 2 females and 9 males in the Compound B treatment arm, and 2 females and 10 males in the control arm. The median patient age was 66 and 65 years for the Compound B treatment arm and control arm, respectively. For RT-verification experiments, samples from 12 females and 24 males from the Compound B treatment arm, and 14 females and 17 males from the control arm were used. The median age for these patients was 62 and 60 years, respectively. Clinical response criteria were defined according to RECIST guidelines.
All blood samples were collected into Vacutainer tubes containing sodium heparin. Ten 10 ml of blood was withdrawn from patients prior to receiving any treatment on day 1 and also prior to dosing at end of cycle 1 (day 56 in Trial A; day 42 in Trial B). For peripheral blood mononuclear cell (PBMC) preparations, blood samples were shipped overnight at ambient temperature to a central processing facility (Quest Diagnostics, Inc., Collegeville, Pa., USA) for PBMC isolation via Ficoll gradient method. Purified PBMCs were shipped in RNA lysis buffer (Clontech, Palo Alto, Calif., USA) to SUGEN where isolation of total RNA was performed. For Trial B, whole peripheral blood samples were directly frozen at the clinical sites and shipped on dry ice to SUGEN for RNA isolation.
Total RNA was purified from PBMC samples using Clontech Nucleospin RNA II kit reagents (Clontech, Palo Alto, Calif.) and from whole blood samples using MRC TRI Reagent BD (Molecular Research Center, Cincinnati, Ohio, USA), an adaptation of the Chomczynski single step method, according to the manufacturer's instructions. All sample preparations included a treatment with RNAse-free DNAse. RNA yields were measured by UV absorbance and RNA quality was assessed by agarose gel electrophoresis with ethidium bromide staining for visualization of ribosomal RNA band integrity.
In these experiments, equal amounts of starting material were used for pre- and post-treatment samples from each donor (typically 2 μg). Briefly, the protocol was as follows: double-stranded cDNA was synthesized from total RNA (2 μg), with Invitrogen Life Technologies SuperScript Choice system reagents (Invitrogen, Carlsbad, Calif.). The T7-(dT)24 oligomer was used for priming first-strand cDNA synthesis. Double-stranded cDNA product was purified via phenol-chloroform extraction, then used as template in first round of in vitro transcription (IVT) of cRNA. […] The cRNA product was then purified with Qiagen spin column clean-up protocol and used as template in second round of cDNA synthesis. This second round of synthesis was similar to the first round except that random hexamers were used in priming of first-strand synthesis, with T7-(dT)24 oligomer priming the second-strand. Purification of the cDNA was as in the first round. The second round of IVT of cRNA was as in the first round but with biotinylated ribonucleotides rather than non-biotinylated ribonucleotides. Purified cRNA was quantitated, chemically fragmented according to Affymetrix protocol, and then hybridized overnight on Human Genome U95A Arrays (which contain probe sets for the detection of approximately 12,600 transcripts). […]

The test system of the next assay is VEGF. Briefly: ELISA of VEGF in plasma of patients given Compound A. The note with it: cancer patients; 24 hours after first dose vs before; dosed twice over 24 hours. How it is done: (§1) (Minneapolis, Minn.). Human plasminogen activator inhibitor-1 (PAI-1) and human tissue factor (TF) ELISA kits were obtained from American Diagnostica, Inc. (Greenwich, Conn.). All ELISAs were performed on plasma samples according to the manufacturers' instructions.

Assay [2] deals with PAI-1. Briefly: ELISA of PAI-1 in plasma of patients given Compound A. Conditions: cancer patients; 24 hours after first dose vs before; dosed twice over 24 hours. How it is done:
as §1
On the technique in general: ELISA stands for enzyme-linked immunosorbent assay.

The next assay deals with TIMP-1. Put plainly: ELISA of TIMP-1 in plasma of patients given Compound A. Conditions: cancer patients; 24 hours after first dose vs before; dosed twice over 24 hours. How it is done: as §1
For assay [3], the system named is RNA transcripts in patient whole blood. Put plainly: Affymetrix DNA array and TaqMan qRT-PCR of whole blood RNA of patients given Compound A. The note with it: Affymetrix GeneChip. As to the method:
TRI Reagent® BD—RNA, DNA, protein isolation reagent was used according to the manufacturer's protocol, Molecular Research Center, Inc. (Cincinnati, Ohio) <www.mrcgene.com>.
Images were scanned with a Hewlett-Packard GeneArray scanner.
To determine the fold change, the AD of the post-treatment sample was divided by the AD of the pre-dose samples.
All probes contained a reporter dye (FAM) and a dye quencher (MGB). QRT-PCR was performed using 20 ng of total RNA with TaqMan® One-Step RT-PCR Master Mix Reagents Kit (Applied Biosystems) following the manufacturer's protocol. […] VEGF (Genbank accession number AF022375) transcripts were amplified using forward primer […] (SEQ ID NO: 165), reverse primer […] (SEQ ID NO: 166), and probe […] (SEQ ID NO: 167) to generate an 82-bp amplicon product. Vinculin (Genbank accession number M33308) transcripts were amplified using forward primer […] (SEQ ID NO: 168), reverse primer […] (SEQ ID NO: 169), and probe […] (SEQ ID NO: 170) to generate a 124-bp amplicon product. PECAM-1 (Genbank accession number L34657) transcripts were amplified using forward primer […] (SEQ ID NO: 171), reverse primer […] (SEQ ID NO: 172), and probe […] (SEQ ID NO: 173) to generate a 56-bp amplicon product. MAPK Kinase 3 (Genbank accession number L36719) transcripts were amplified using forward primer […] (SEQ ID NO: 174), reverse primer […] (SEQ ID NO: 175), and probe […] (SEQ ID NO: 176) to generate a 77-bp amplicon product. Hemoglobin, epsilon 1 (Genbank accession number AI349593) transcripts were amplified using forward primer […] (SEQ ID NO: 177), reverse primer […] (SEQ ID NO: 178), and probe […] (SEQ ID NO: 179) to generate a 66-bp amplicon product. GAPDH and 18S were ordered as pre-developed assay reagents (PDARs) from Applied Biosystems and used as endogenous controls.
Where ΔΔCt=(Cttarget−Ctcontrol)post-dose−(Cttarget−Ctcontrol)pre-dose.

The test system of assay [4] is MIG. Briefly: MIG plasma ELISA, Compound 1 Phase I trials. Conditions: Trial C patients, FIG. 17.
The next assay relates to VEGF/PLGF heterodimers. Briefly: Hybrid ELISA for VEGF/PLGF heterodimers in patient plasma. The note with it: Trial C. The text has this:
Heterodimers of VEGF and PLGF have been reported in the scientific literature. To measure heterodimers, a hybrid ELISA assay was used, combining reagents from both the R&D Systems VEGF and PLGF ELISA kits (where VEGF antibodies are used in capture step and PLGF antibodies are used in detection step).

Another assay has as its system I-TAC. Briefly: I-TAC plasma ELISA, Compound 1 Phase I trials. Conditions: individual patients. How it is done:
(§2) In Trials A and B, patients received Compound 1.
(§3) Data analysis was performed for each marker.

Another assay relates to IP-10. Put plainly: IP-10 plasma ELISA, Compound 1 Phase I trials. Conditions: individual patients; >500 = above highest standard. As to the method: as §2, §3
Assay [5] concerns MIG. Put plainly: MIG plasma ELISA, Compound 1 Phase I trials. Conditions: individual patients. How it is done:
as §2, §3

The mark [6] stands for this setting: patients with Increase call, Trial A, with 5-FU/leucovorin.
The mark [7] stands for this setting: advanced solid malignancies, 24 hours after first dose vs before.

Molecules are shown by their SMILES. Values joined by “and” are separate entries in the source; they are usually repeats but may differ in a detail not shown here. Equal values may be shown once.

For the molecule `Cc1cc(C)c(/C=C2\C(=O)Nc3ccccc32)[nH]1` [Compound B, 3-(3,5-dimethyl-1H-pyrrol-2-ylmethylene)-1,3-dihdyro-indol-2-one], in the assay on PAI-1 [1] (patients with MR (minor response) at end of cycle 1), the “median PAI-1 plasma level, day 56” value is 23.93 ng/mL. Also, the “median PAI-1 plasma level, day 56” value in the assay with PAI-1 [1] (patients with PD (progressive disease) at end of cycle 1) amounted to 34.8 ng/mL. Besides, in the assay with PBMC and whole blood RNA, the “expression of CD24, lactoferrin, LCN2 and MMP-9 transcripts” value is on record as “significantly induced”. Moreover, in the assay with PBMC (Compound B (SU5416) arm, highest of the 13 transcripts), the “average fold change of lactoferrin transcript” value turned out to be 33. In addition, in the assay with PBMC (Compound B (SU5416) arm, lowest of the 13 transcripts), the “average fold change of hypothetical protein FLJ13052 transcript” value stood at 2.6. Also, in the assay on PBMC (setting [6]), the “Increased in SU5416 arm: Antileukoprotease transcript” value is 9 of 11, the “Increased in SU5416 arm: BPI transcript” value is 9 of 11, the “Increased in SU5416 arm: CD24 antigen transcript” value is on record as 9 of 11 and the “Increased in SU5416 arm: CEA CAM 8 transcript” value is listed as 9 of 11. For the same molecule, in the assay with PBMC (setting [6]), the “Increased in SU5416 arm: Defensin α 3 transcript” value was 10 of 11, the “Increased in SU5416 arm: Defensin α 4 transcript” value was 10 of 11, the “Increased in SU5416 arm: Hypothetic. Protein FLJ13052 transcript” value is recorded as 7 of 11 and the “Increased in SU5416 arm: Lactoferrin transcript” value is listed as 11 of 11. In addition, in the assay with PBMC (setting [6]), the “Increased in SU5416 arm: Lipocalin 2 transcript” value is listed as 10 of 11, the “Increased in SU5416 arm: Liver arginase transcript” value is recorded as 9 of 11, the “Increased in SU5416 arm: MMP-9 transcript” value is recorded as 8 of 11 and the “Increased in SU5416 arm: S100 P transcript” value is on record as 9 of 11. The “Increased in SU5416 arm: Thrombospondin 1 transcript” value in the assay on PBMC (setting [6]) is given as 9 of 11. Moreover, the “number of the 13 genes showing induction in each case” value in the assay on PBMC (all cases of the Compound B arm) is “at least 6”.

For the molecule `Cc1[nH]c(/C=C2\C(=O)Nc3ccccc32)c(C)c1CCC(=O)O` [Compound A, 3-[2,4-dimethyl-5-(2-oxo-1,2-dihydro-indol-3-ylidenemethyl)-1H-pyrrol-3-yl]-propionic acid], the “level of VEGF in plasma” value in the assay on VEGF was “increased”. Besides, the “level of PAI-1 in plasma” value in the assay on PAI-1 [2] was “increased”. Also, in the assay on TIMP-1, the “level of TIMP-1 in plasma” value was “increased”. In [3] (setting [7]), the “level of VEGF RNA in whole blood” value is recorded as “increase” and the “level of vinculin RNA in whole blood” value is reported as “increase”. Also, in assay [3] (day 28 vs day 0, dosed about 2 times per day), the “levels of 26 RNA transcripts in patient blood” value is “increased and/or decreased”.

As to `CCN(CC)CCNC(=O)c1c(C)[nH]c(C=C2C(=O)Nc3ccc(F)cc32)c1C.O=C(O)C[C@H](O)C(=O)O` [malate salt of Compound 1, L-malate salt of 5-(5-fluoro-2-oxo-1,2-dihydroindol-3-ylidenemethyl)-2,4-dimethyl-1H-pyrrole-3-carboxylic acid(2-diethylaminoethyl)amide], the “chemokine MIG plasma level during treatment” value with MIG [4] is recorded as “induced”. In addition, the “patients tested with increase in plasma levels of VEGF/PLGF heterodimer” value in the assay with VEGF/PLGF heterodimers is on record as 3 of 3. Besides, the “I-TAC plasma level, day 15” value with I-TAC (cycle 1) came out at 2020.2. For the same molecule, the “I-TAC plasma level, end C1 dosing” value in the assay on I-TAC (in pg/mL (unit assumed)) is 771.04 and 701.46 and 315.69. Moreover, in the assay on IP-10, the “IP-10 plasma level, end C1 dosing” value is >500 (4×) and 240.31 and 384.06. In addition, the “MIG plasma level, day 15” value with MIG [5] (cycle 1) was determined as 339.16. Further, the “MIG plasma level, end C1 dosing” value in the assay on MIG [5] (in pg/mL (unit assumed)) was 995.47 and 81.439 and 145.64 and 698.23 and 1066.2 and 344.93 and 907.09 and 314.2.
